Source: US6977294B2, “Process for isolation of eupalitin from Boerhavia diffusa” (Council of Scientific and Industrial Research, priority 2002, dated 2005)
Entries after “also recorded” stand apart in the source; their conditions may differ. Read-outs that look alike come from different tables or passages of the source.

Tests used:
Ca^2+ channel = conditions: frog heart single cells; cited from earlier work
solubility in methanol = assay type: physicochemical
Description: The process of the present invention overcomes disadvantages of the prior art since: • 1. Aerial parts such as leaves of Boerhavia diffusa collected from specific locations identified herein are used (containing the maximum amount of the compound and as established by analyzing the samples of the plant collected during three years). • 2. The process prescribes hot continuous extraction (Soxhlet extraction) ensuring complete extraction of compound of formula 1. […] The compound is purified by direct crystallization from the residue obtained after triturition described in 3, making it the simplest, quickest, highly economically viable, scale up compatible for commercial utilization and novel method for the isolation of compound of formula 1 with an yield upto 0.4% which is more than 300 times the yield reported by Li et al.

[1] = system: bone resorption induced by parathyroid hormone (PTH); conditions: cited from earlier work; for activity compared with ipriflavone: under identical conditions, anti-osteoporosis activity
[2] = cats; cited from earlier work
[3] = rats; cited from earlier work
[4] = monkeys; cited from earlier work

For `COc1cc([C@H]2OC[C@H]3[C@@H]2CO[C@@H]3c2cc(OC)c(O[C@@H]3O[C@H](CO)[C@@H](O)[C@H](O)[C@H]3O)c(OC)c2)cc(OC)c1O[C@@H]1O[C@H](CO)[C@@H](O)[C@H](O)[C@H]1O` [Liriodendrin, liriodendrin], the “Ca2+ channel block” value (Ca^2+ channel) is listed as “blocked”.

For `COc1cc2oc(-c3ccc(O)cc3)c(OC3OC(CO)C(O)C(O)C3O)c(=O)c2c(O)c1OC` [eupalitin 3-O-β-D-galactopyranoside, 5,4′-dihydroxy 6,7-dimethoxy-flavonol-3-O-β-D-galactoside], the solubility in methanol (solubility in methanol) is given as “not highly soluble”, the “inhibition of bone resorption induced by parathyroid hormone (PTH)” value ([1]; tissue culture) is given as “significant (p<0.001) inhibition” and the “activity compared with ipriflavone” value [1] is given as “greater anti-osteoporosis activity than ipriflavone; also recorded: more than that exhibited by lpriflavone”. The “activity compared with ipriflavone” value ([1]; listed as 3-O-β-D-galactopyranoside) was “greater anti-osteoporosis activity than ipriflavone”.

In the case of `O=c1[nH]cnc2c1ncn2C1O[C@@H](CO)[C@H](O)[C@H]1O` (stereo partly drawn) [hypoxanthine 9-L-arabinoside], the cardiovascular effects [2] is given as “depressor and negative chronotropic effects” and the cardiovascular effects [3] is given as “depressor and negative chronotropic effects”.

In the case of Punarnavoside, the antifibrinolytic activity [4] is given as “had antifibrinolytic activity”.
